Laboratory results from US7229646B2, “Methods and compositions for modulating immune response and for the treatment of inflammatory disease” (Foodscience Corporation, priority 1999, dated 2007).

Key:
CD8^+ T cells = assay: Spleen lymphocyte populations by flow cytometry, CD8+ T cells; assay type: in vivo, MRI-lpr mice; settings: flow cytometry after twelve weeks (FIG. 3)
Description: (§1) MRI-lpr mice were used to study the effects of a combination of DMG and PCE on components of the immune system and on the progression of the SLE disease. Forty MRI-lpr mice were divided into four groups of ten mice each: a control group, a PCE treated group, a DMG treated group, and a PCE-DMG treated group. The control group was given standard mouse chow and water. […] The PCE group was given a PCE-mouse chow mix and water. The PCE-DMG combination group was given a PCE-mouse chow mix and DMG water. […] The mice were given food and water ad libitum. It is estimated that the mice, with a size range of 30–50 grams, consumed about 1–3 mg/day of DMG and 2–6 mg/day of PCE. The mice were weighed weekly and 100 ul of blood was collected via orbital bleed on a weekly basis. The collected blood was centrifuged and the serum was recovered and stored at −20° C. for analysis at the end of the twelve week experiment. After twelve weeks, the mice were sacrificed and the spleens, kidneys, and livers were harvested. […] The spleens were processed and the cells recovered were quantified by flow cytometry using fluorescent anti-CD4, anti-CD8 and anti-CD19 antibodies (Pharmingen, San Diego, Calif.). Cytokine levels in the serum and anti-single stranded and double stranded DNA antibody levels in the serum were determined using an enzyme linked immunosorbent assay (ELISA).

CD19^+ B cell = assay: Spleen lymphocyte populations by flow cytometry, CD19+ B cells; assay type: in vivo, MRI-lpr mice; settings: flow cytometry after twelve weeks (FIG. 3)
Description: as §1

il-6 = assay: Serum cytokine ELISA, il-6; assay type: in vivo, MRI-lpr mice; settings: ELISA (FIG. 2)
Description: as §1

il-10 = assay: Serum cytokine ELISA, il-10; assay type: in vivo, MRI-lpr mice; settings: ELISA (FIG. 2)
Description: as §1

anti-ssDNA antibody = assay: Serum anti-ssDNA antibody ELISA; assay type: in vivo, MRI-lpr mice; settings: time course to 11th week; versus control (FIG. 5)
Description: as §1

[1] = tested on: humoral and cellular immunity; settings: Graber et al., 1981; cited from earlier work
lactic acid levels = settings: animals under extreme stress; cited from earlier work
[2] = tested on: B-cells, T cells and macrophages; settings: in humans; cited from earlier work

CN(C)CC(=O)O [DMG, N,N-dimethylglycine]
CD8^+ T cells (CD8^+ T cells): No effect | CD19^+ B cell percentages (CD19^+ B cell): No effect | levels of serum il-6 (il-6): significantly lower levels of il-6 than control animals | levels of serum il-10 (il-10): higher levels of IL-10 than in controls | anti-ssDNA antibody levels in the serum (anti-ssDNA antibody): appeared to be leveling out | effect on humoral and cellular immunity [1]: stimulation of both humoral and cellular immunity | lactic acid levels (lactic acid levels): decreased lactic acid levels | oxygen utilization (lactic acid levels): increased oxygen utilization | B-cell antibody responses [2]: much higher antibody responses | activity of T cells and macrophages [2]: enhanced
